From patent publication US8372874B2, “Compounds which selectively modulate the CB2 receptor” (Boehringer Ingelheim International GmbH, priority 2008, dated 2013)
Where two headings read alike, the source gives them in different places.

Assays:
human CB2R = biological target: T1, human CB2R (Homo sapiens, UniProt P34972); assay: CB2R mediated modulation of cAMP synthesis; type: cell-based
T1 construct: host or cells: CHO cells
Procedure: B. CB2R Mediated Modulation of cAMP Synthesis:
Compounds of the invention are evaluated for their CB2 agonist or inverse agonistic activity in accordance with the following experimental method.
(§1) CHO cells expressing human CB2R (Euroscreen) are plated at a density of 5000 cells per well in 384 well plates and incubated overnight at 37° C. After removing the media, the cells are treated with test compounds diluted in stimulation buffer containing 1 mM IBMX, 0.25% BSA and 10 uM Forskolin. The assay is incubated for 30 minutes at 37° C. Cells are lysed and the cAMP concentration is measured using DiscoverX-XS cAMP kit, following the manufacturer's protocol. In this setting, agonists will decrease forskolin induced production of cAMP while inverse agonists will further increase forskolin induced production of cAMP. EC50 of agonists are calculated as follows. The maximal amount of cAMP produced by forskolin compared to the level of cAMP inhibited by 1 uM CP55940 is defined as 100%. […] Data is analyzed using a four-parameter logistic model. (Model 205 of XLfit 4.0).

human CB1R = biological target: T2, human CB1R (Homo sapiens, UniProt P21554); assay: CB1R mediated modulation of cAMP synthesis; type: cell-based
T2 construct: host or cells: CHO cells
T2 sequence (P21554 whole entry): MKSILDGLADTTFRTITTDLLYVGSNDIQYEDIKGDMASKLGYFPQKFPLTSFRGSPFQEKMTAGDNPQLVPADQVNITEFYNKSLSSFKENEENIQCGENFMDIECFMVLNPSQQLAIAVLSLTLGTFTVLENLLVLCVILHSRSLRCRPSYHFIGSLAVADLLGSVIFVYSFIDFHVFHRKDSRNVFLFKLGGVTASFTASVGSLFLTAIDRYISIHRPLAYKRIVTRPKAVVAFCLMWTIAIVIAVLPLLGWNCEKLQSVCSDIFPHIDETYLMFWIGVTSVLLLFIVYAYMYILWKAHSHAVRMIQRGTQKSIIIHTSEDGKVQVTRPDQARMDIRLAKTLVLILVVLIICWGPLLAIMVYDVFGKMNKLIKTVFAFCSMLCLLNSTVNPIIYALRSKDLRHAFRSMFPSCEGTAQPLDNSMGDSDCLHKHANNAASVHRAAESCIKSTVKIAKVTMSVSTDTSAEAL
Procedure: C. CB1R Mediated Modulation of cAMP Synthesis:
Compounds of the invention are evaluated for their CB1 agonist or inverse agonistic activity in accordance with the following experimental method.
as §1, with “CB1R” for “CB2R”

[1] = CHO cells expressing human CB2R, inhibition of forskolin-stimulated cAMP synthesis, read-out: CB2 EC50
[2] = CHO cells expressing human CB1R, inhibition of forskolin-stimulated cAMP synthesis, read-out: CB1 EC50

T1 sequence (P34972 whole entry): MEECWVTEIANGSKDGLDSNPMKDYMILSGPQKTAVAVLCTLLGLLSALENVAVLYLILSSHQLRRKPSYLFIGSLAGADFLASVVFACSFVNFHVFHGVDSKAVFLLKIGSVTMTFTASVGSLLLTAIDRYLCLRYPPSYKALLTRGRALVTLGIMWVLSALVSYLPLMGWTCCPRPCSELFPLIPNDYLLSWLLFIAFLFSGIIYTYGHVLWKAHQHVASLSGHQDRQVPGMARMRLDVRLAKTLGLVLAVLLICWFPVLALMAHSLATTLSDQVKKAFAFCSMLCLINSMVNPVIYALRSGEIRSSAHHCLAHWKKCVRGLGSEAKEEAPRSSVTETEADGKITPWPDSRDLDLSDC

SMILES	EC50 (human CB2R)	EC50 (human CB1R)	EC50 (human CB2R; [1])	EC50 (human CB1R; [2])
CC(=O)OCC(C)(C)c1cc(NC(=O)C(C)(C)S(=O)(=O)C2CCOCC2)on1	4.2 nM	> 50000 nM		
CC(C)(C)C(=O)OCC(C)(C)c1cc(NC(=O)C(C)(C)S(=O)(=O)C2CCOCC2)on1	50 nM	> 50000 nM		
CC(O)C(C)(C)c1cc(NC(=O)C(C)(C)S(=O)(=O)C2CCOCC2)on1 (centres unmarked)	14 nM	> 50000 nM		
CC(C)(COC(=O)c1ccccc1)c1cc(NC(=O)C(C)(C)S(=O)(=O)C2CCOCC2)on1	11 nM	> 50000 nM		
C[C@H](O)C(C)(C)c1cc(NC(=O)C(C)(C)S(=O)(=O)C2CCOCC2)on1	14 nM	> 50000 nM		
C[C@@H](O)C(C)(C)c1cc(NC(=O)C(C)(C)S(=O)(=O)C2CCOCC2)on1	20 nM	> 50000 nM		
CC(C)(O)C(C)(C)c1cc(NC(=O)C(C)(C)S(=O)(=O)C2CCOCC2)on1			116 nM	> 50000 nM
CC(O)C(C)(C)c1cc(NC(=O)C(C)(C)S(=O)(=O)CCCC(F)(F)F)on1 (centres unmarked)	31 nM	> 20000 nM		
CC(C)(C(=O)Nc1cc(C2(COC3CCCCO3)CCCCC2)no1)S(=O)(=O)C1CCOCC1 (centres unmarked)	22 nM	> 50000 nM		
CCC(O)C(C)(C)c1cc(NC(=O)C(C)(C)S(=O)(=O)C2CCOCC2)on1 (centres unmarked)	29 nM	> 50000 nM		
COCCOCC(C)(C)c1cc(NC(=O)C(C)(C)S(=O)(=O)C2CCOCC2)on1	2.1 nM	> 50000 nM		
CC(C)C(O)C(C)(C)c1cc(NC(=O)C(C)(C)S(=O)(=O)C2CCOCC2)on1 (centres unmarked)			150 nM	> 50000 nM
CC(C)(C(=O)Nc1cc(C2(COC3CCCCO3)CCCC2)no1)S(=O)(=O)c1ccc(F)cc1 (centres unmarked)	5.3 nM	> 50000 nM		
C[C@H](OC1CCCOC1)C(C)(C)c1cc(NC(=O)C(C)(C)S(=O)(=O)C2CCOCC2)on1 (some centres unmarked)	2.8 nM	> 50000 nM		
CC[C@H](O)C(C)(C)c1cc(NC(=O)C(C)(C)S(=O)(=O)C2CCOCC2)on1	47 nM	> 50000 nM		
CC[C@@H](O)C(C)(C)c1cc(NC(=O)C(C)(C)S(=O)(=O)C2CCOCC2)on1	70 nM	> 50000 nM		
CCn1nc(NC(=O)C(C)(C)S(=O)(=O)C2CCOCC2)nc1-c1ccc(OC)cc1	77 nM	> 500000 nM		
CCn1nc(NC(=O)C(C)(C)S(=O)(=O)C2CCOCC2)nc1-c1ccc(O)cc1	10 nM	> 20000 nM		
COCCOCC1(c2cc(NC(=O)C(C)(C)S(=O)(=O)C3CCOCC3)on2)CCCCC1	59 nM	> 50000 nM		
CC(C)(C(=O)Nc1cc(C2CCOCC2)no1)S(=O)(=O)C1CCOCC1			348 nM	> 50000 nM
CC(C)(C(=O)Nc1cc(C2CCOCC2)no1)S(=O)(=O)CCCC(F)(F)F			368 nM	> 50000 nM
CC(C)(C(=O)Nc1cc(C2CCCO2)no1)S(=O)(=O)C1CCOCC1 (centres unmarked)			101 nM	> 50000 nM
CC(C)(C(=O)Nc1cc(C2CCOC2)no1)S(=O)(=O)CCCC(F)(F)F (centres unmarked)			172 nM	> 50000 nM

SMILES	EC50 (human CB2R)	EC50 (human CB1R)	EC50 (human CB2R; [1])	EC50 (human CB1R; [2])
CC(C)(C(=O)Nc1cc([C@@H]2CCCO2)no1)S(=O)(=O)C1CCOCC1			138 nM	> 50000 nM
CC(C)CCS(=O)(=O)C(C)(C)C(=O)Nc1cc(C2CCOCC2)no1	97 nM	> 20000 nM		
CC1(c2cc(NC(=O)C(C)(C)S(=O)(=O)C3CCOCC3)on2)CCCO1 (centres unmarked)	13 nM	> 50000 nM		
COc1ccc(COCC(C)(C)c2cc(NC(=O)C(C)(C)S(=O)(=O)CC3CCOCC3)on2)cc1			167 nM	> 20000 nM
C[C@H](O)C(C)(C)c1cc(NC(=O)C(C)(C)S(=O)(=O)C2CCN(S(C)(=O)=O)CC2)on1			107 nM	> 50000 nM
CO[C@@H](C)C(C)(C)c1cc(NC(=O)C(C)(C)S(=O)(=O)C2CCOCC2)no1	10.8 nM	> 50000 nM		
COCCOCC(C)(C)c1cc(NC(=O)C(C)(C)S(=O)(=O)C2CCOCC2)no1	15 nM	> 50000 nM		
COCCOC(C)(C)c1cc(NC(=O)C(C)(C)S(=O)(=O)C2CCOCC2)on1	96 nM	> 50000 nM		
C[C@H](O)C(C)(C)c1cc(NC(=O)C(C)(C)S(=O)(=O)C2CCOCC2)no1	25 nM	> 50000 nM		
C[C@H](O)C(C)(C)c1cc(NC(=O)C(C)(C)S(=O)(=O)c2ccc(F)cc2)on1	42 nM	> 50000 nM		
CC(C)(COCCO)c1cc(NC(=O)C(C)(C)S(=O)(=O)C2CCOCC2)no1	2.4 nM	> 50000 nM		
COCCOCC(C)(C)c1cc(NC(=O)C(C)(C)S(=O)(=O)CC2CCOCC2)no1	15 nM	> 50000 nM		
CO[C@@H](C)C(C)(C)c1cc(NC(=O)C(C)(C)S(=O)(=O)CC2CCOCC2)no1	30 nM	> 50000 nM		
CC(C)(OCCO)c1cc(NC(=O)C(C)(C)S(=O)(=O)C2CCOCC2)on1	28 nM	> 50000 nM		
COCCOCC(C)(C)c1cc(NC(=O)C(C)(C)S(=O)(=O)C2CCN(S(C)(=O)=O)CC2)on1	11 nM	> 50000 nM		
C[C@H](O)C(C)(C)c1cc(NC(=O)C(C)(C)S(=O)(=O)CC2CCOCC2)no1			121 nM	> 50000 nM
CC(C)(COCCO)c1cc(NC(=O)C(C)(C)S(=O)(=O)C2CCN(S(C)(=O)=O)CC2)on1	10 nM	> 50000 nM		
C[C@H](O)C(C)(C)c1cc(NC(=O)C(C)(C)S(=O)(=O)CC[C@@H]2CCOC2)no1	15 nM	21000 nM		
CC[C@H](C)S(=O)(=O)C(C)(C)C(=O)Nc1cc(C(C)(C)[C@H](C)O)no1			250 nM	> 50000 nM
COCCOCC(C)(C)c1cc(NC(=O)C(C)(C)S(=O)(=O)C[C@H]2CCOC2)on1	98 nM	> 50000 nM		
COCCOCC(C)(C)c1cc(NC(=O)C(C)(C)S(=O)(=O)CCC(F)(F)F)on1	27 nM	> 50000 nM		
CCOCCOCC(C)(C)c1cc(NC(=O)C(C)(C)S(=O)(=O)C2CCOCC2)on1	1.5 nM	> 50000 nM		
CC(C)(COCCO)c1cc(NC(=O)C(C)(C)S(=O)(=O)CC2CCOCC2)on1	13 nM	> 50000 nM		
